Test system: Normal human melanocytes NHM (HEMn-MP, Clonetics)
Assay: Quantification of melanin synthesis in cell culture (total melanin, absorbance at 405 nm)
Assay type: cell-based
Description: Quantification of Melanin Synthesis in Cell Culture:
Normal human melanocytes NHM (HEMn-MP, Clonetics) were seeded in 96 well cell culture plates and grown to sub-confluence for two days in a mixture of M2-Medium (Clonetics) and Medium (Promocell). Culture medium was exchanged with Culture Medium containing Steviol (96%) and melanogenesis progressed for another three days at 37° C. with another medium exchange on day two. Including cell layer and culture supernatant the total melanin was extracted using 1.7M KOH with vigorous shaking at RT. The total melanin content was determined at 405 nm in an absorbance plate reader versus a control (100%)

**Q.** With C=C1C[C@@]23CC[C@H]4[C@@](C)(CCC[C@@]4(C)C(=O)O)[C@@H]2CC[C@]1(O)C3 [Steviol] as the compound, how does the “effect on the production of melanin in human melanocytes” value (0.25 to 1 micro M) read?
**A.** The value was “clear dose dependent positive effect”.

**Q.** What about the “potency relative to positive control Glycyrrhizin” value (melanin production in human melanocytes) of the same compound?
**A.** The value was “about 1000 times”.

From patent publication US9393190B2, “Methods for enhancing skin tan and reducing risks of UV skin damage” (DSM IP ASSETS B.V., priority 2009, dated 2016)
